Assay results from patent publication US20180186753A1 (published 2018).
Values joined by “and” are separate entries in the source; they are usually repeats but may differ in a detail not shown here. Identical values can stand only once.

Structure (SMILES)	melting point
CC(=O)SCCC(=O)Nc1c[nH]nc1Cl	140 to 143 °C
CCN(C(=O)CCSC(C)=O)c1c[nH]nc1Cl	98 to 99 °C
CC(=O)SCCC(=O)Nc1cn(-c2cccnc2)nc1Cl	163 to 166 °C and 168 to 171 °C
CCN(C(=O)CCS)c1cn(-c2cccnc2)nc1Cl	70 to 73 °C
C=CC(=O)Nc1c[nH]nc1Cl	182 °C (dec.)
C=CC(=O)N(CC)c1c[nH]nc1Cl	156 to 160 °C
C=CC(=O)Nc1cn(-c2cccnc2)nc1Cl	148 to 153 °C
